From patent publication US10582709B2, “Butyrolactones as herbicides” (FMC Corporation, priority 2015, dated 2020)

Experiments:
Format in all cases: in vivo
[1] = test system: sedge, umbrella (small-flower umbrella sedge, Cyperus difformis); assay: Test B flooded paddy test, umbrella sedge; settings: applied to paddy water at 2-leaf stage, 13 to 15 d, scale 0 no effect to 100 complete control
Method in brief: (§1)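 Ratings use a 0-100 visual scale, where 100 is complete control, and compare treated plants with controls after 13 to 15 d of greenhouse growth. Compound went straight into paddy water kept 3 cm over the soil surface, applied to seedlings at the 2-leaf stage.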

[2] = test system: barnyardgrass (Echinochloa crus-galli); assay: Test B flooded paddy test, barnyardgrass; settings: applied to paddy water at 2-leaf stage, 13 to 15 d, scale 0 no effect to 100 complete control
Method in brief: as §1

[3] = test system: barnyardgrass (Echinochloa crus-galli); assay: Test A preemergence, barnyardgrass; settings: visual rating after approx. 10 d, 0 to 100 scale, 0 no effect, 100 complete control
From the text: (§2) Seeds of plant species selected from barnyardgrass (Echinochloa crus-galli), crabgrass (large crabgrass, Digitaria sanguinalis), kochia (Kochia scoparia), ragweed (common ragweed, Ambrosia elatior), morningglory (Ipomoea spp.), velvetleaf (Abutilon theophrasti), ryegrass, Italian (Italian ryegrass, Lolium multiflorum), foxtail, giant (giant foxtail, Setaria faberii), wheat (Triticum aestivum), corn (Zea mays), and pigweed (Amaranthus retroflexus), were planted into a blend of loam soil and sand and treated preemergence with a directed soil spray using test chemicals formulated in a non-phytotoxic solvent mixture which included a surfactant. At the same time, plants selected from these crop and weed species and also blackgrass (Alopecurus myosuroides), and galium (catchweed bedstraw, Galium aparine), were planted in pots containing the same blend of loam soil and sand and treated with postemergence applications of test chemicals formulated in the same manner. Plants ranged in height from 2 to 10 cm and were in the one- to two-leaf stage for the postemergence treatment. Treated plants and untreated controls were maintained in a greenhouse for approximately 10 d, after which time all treated plants were compared to untreated controls and visually evaluated for injury. Plant response ratings, summarized in Table A, are based on a 0 to 100 scale where 0 is no effect and 100 is complete control. A dash (-) response means no test result.

[4] = test system: pigweed (Amaranthus retroflexus); assay: Test A postemergence, pigweed; settings: visual rating after approx. 10 d, 0 to 100 scale, 0 no effect, 100 complete control
Method in brief: (§3)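 Seeds sown in loam soil–sand blend received a directed soil spray of compound in non-phytotoxic solvent with surfactant (preemergence); 2–10 cm, one- to two-leaf plants were sprayed with the same formulation (postemergence). Greenhouse, ~10 d, then visual injury versus untreated controls, rated 0 (no effect) to 100 (complete control).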

[5] = test system: ryegrass, Italian (Italian ryegrass, Lolium multiflorum); assay: Test A preemergence, Italian ryegrass; settings: visual rating after approx. 10 d, 0 to 100 scale, 0 no effect, 100 complete control
From the text: as §2

[6] = test system: ducksalad (Heteranthera limosa); assay: Test B flooded paddy test, ducksalad; settings: applied to paddy water at 2-leaf stage, 13 to 15 d, scale 0 no effect to 100 complete control
Method in brief: as §1

[7] = test system: ragweed (common ragweed, Ambrosia elatior); assay: Test A preemergence, ragweed; settings: visual rating after approx. 10 d, 0 to 100 scale, 0 no effect, 100 complete control
From the text: as §2

kochia (Kochia scoparia) [8] = assay: Test A preemergence, kochia; settings: visual rating after approx. 10 d, 0 to 100 scale, 0 no effect, 100 complete control
From the text: as §2

corn (Zea mays) = assay: Test A postemergence, corn; settings: visual rating after approx. 10 d, 0 to 100 scale, 0 no effect, 100 complete control
Method in brief: as §3

[9] = test system: ragweed (common ragweed, Ambrosia elatior); assay: Test A postemergence, ragweed; settings: visual rating after approx. 10 d, 0 to 100 scale, 0 no effect, 100 complete control
Method in brief: as §3

[10] = test system: barnyardgrass (Echinochloa crus-galli); assay: Test A postemergence, barnyardgrass; settings: visual rating after approx. 10 d, 0 to 100 scale, 0 no effect, 100 complete control
Method in brief: as §3

kochia (Kochia scoparia) [11] = assay: Test A postemergence, kochia; settings: visual rating after approx. 10 d, 0 to 100 scale, 0 no effect, 100 complete control
Method in brief: as §3

[12] = test system: wheat (Triticum aestivum); assay: Test A postemergence, wheat; settings: visual rating after approx. 10 d, 0 to 100 scale, 0 no effect, 100 complete control
Method in brief: as §3

[13] = test system: pigweed (Amaranthus retroflexus); assay: Test A preemergence, pigweed; settings: visual rating after approx. 10 d, 0 to 100 scale, 0 no effect, 100 complete control
From the text: as §2

[14] = test system: blackgrass (Alopecurus myosuroides); assay: Test A postemergence, blackgrass; settings: visual rating after approx. 10 d, 0 to 100 scale, 0 no effect, 100 complete control
Method in brief: as §3

rice (Oryza sativa) = assay: Test B flooded paddy test, rice; settings: applied to paddy water at 2-leaf stage, 13 to 15 d, scale 0 no effect to 100 complete control
Method in brief: as §1

[15] = test system: foxtail, giant (giant foxtail, Setaria faberii); assay: Test A preemergence, giant foxtail; settings: visual rating after approx. 10 d, 0 to 100 scale, 0 no effect, 100 complete control
From the text: as §2

[16] = test system: foxtail, giant (giant foxtail, Setaria faberii); assay: Test A postemergence, giant foxtail; settings: visual rating after approx. 10 d, 0 to 100 scale, 0 no effect, 100 complete control
Method in brief: as §3

[17] = test system: galium (catchweed bedstraw, Galium aparine); assay: Test A postemergence, galium; settings: visual rating after approx. 10 d, 0 to 100 scale, 0 no effect, 100 complete control
Method in brief: as §3

[18] = test system: ryegrass, Italian (Italian ryegrass, Lolium multiflorum); assay: Test A postemergence, Italian ryegrass; settings: visual rating after approx. 10 d, 0 to 100 scale, 0 no effect, 100 complete control
Method in brief: as §3

Row | Structure (SMILES) | Plant response rating, Barnyardgrass ([3]; 125 g ai/ha) | Plant response rating, Barnyardgrass ([3]; 500 g ai/ha) | Plant response rating, Pigweed ([4]; 125 g ai/ha) | Plant response rating, Pigweed ([4]; 500 g ai/ha) | Plant response rating, Ryegrass, Italian ([5]; 125 g ai/ha) | Plant response rating, Ryegrass, Italian ([5]; 500 g ai/ha) | Plant response rating, Ragweed ([7]; 125 g ai/ha) | Plant response rating, Ragweed ([7]; 500 g ai/ha) | Plant response rating, Kochia (kochia (Kochia scoparia) [8]; 125 g ai/ha) | Plant response rating, Kochia (kochia (Kochia scoparia) [8]; 500 g ai/ha) | Plant response rating, Corn (corn (Zea mays); 125 g ai/ha) | Plant response rating, Corn (corn (Zea mays); 500 g ai/ha) | Plant response rating, Ragweed ([9]; 125 g ai/ha) | Plant response rating, Ragweed ([9]; 500 g ai/ha) | Plant response rating, Barnyardgrass ([10]; 125 g ai/ha) | Plant response rating, Barnyardgrass ([10]; 500 g ai/ha) | Plant response rating, Kochia (kochia (Kochia scoparia) [11]; 125 g ai/ha) | Plant response rating, Kochia (kochia (Kochia scoparia) [11]; 500 g ai/ha) | Plant response rating, Wheat ([12]; 125 g ai/ha) | Plant response rating, Wheat ([12]; 500 g ai/ha) | also measured
1 | O=C(Nc1ccccc1C(F)(F)F)C1C(=O)OCC1c1ccc(C(F)(F)F)cc1 (racemic) [Compound 9] | 0 | 0 | 0 | 0 | 0 | 20 | 0 | 0 | 0 | 20 | 0 | 0 | 0 | 0 | 0 | 0 | 0 | 0 | 0 | 0 | Plant response rating, Flood, Sedge, Umbrella ([1]; 250 g ai/ha): 0; Plant response rating, Flood, Sedge, Umbrella ([1]; 1000 g ai/ha): 0; Plant response rating, Flood, Barnyardgrass ([2]; 250 g ai/ha): 0; Plant response rating, Flood, Barnyardgrass ([2]; 1000 g ai/ha): 0; Plant response rating, Flood, Ducksalad ([6]; 250 g ai/ha): 30; Plant response rating, Flood, Ducksalad ([6]; 1000 g ai/ha): 30; Plant response rating, Pigweed ([13]; 125 g ai/ha): 0; Plant response rating, Pigweed ([13]; 500 g ai/ha): 0; Plant response rating, Blackgrass ([14]; 125 g ai/ha): 0; Plant response rating, Blackgrass ([14]; 500 g ai/ha): 0; Plant response rating, Flood, Rice (rice (Oryza sativa); 250 g ai/ha): 0; Plant response rating, Flood, Rice (rice (Oryza sativa); 1000 g ai/ha): 0; Plant response rating, Foxtail, Giant ([15]; 125 g ai/ha): 30; Plant response rating, Foxtail, Giant ([15]; 500 g ai/ha): 80; Plant response rating, Foxtail, Giant ([16]; 125 g ai/ha): 30; Plant response rating, Foxtail, Giant ([16]; 500 g ai/ha): 70; Plant response rating, Galium ([17]; 125 g ai/ha): 0; Plant response rating, Galium ([17]; 500 g ai/ha): 0; Plant response rating, Ryegrass, Italian ([18]; 125 g ai/ha): 0; Plant response rating, Ryegrass, Italian ([18]; 500 g ai/ha): 0
2 | O=C(Nc1cccc(F)c1C(F)(F)F)C1C(=O)OCC1c1ccc(C(F)(F)F)cc1 (racemic) [Compound 10] | 0 | 0 | 0 | 0 | 0 | 0 | 0 | 0 | 0 | 0 | 0 | 0 | 0 | 0 | 0 | 0 | 0 | 0 | 0 | 0 | Plant response rating, Flood, Sedge, Umbrella ([1]; 250 g ai/ha): 0; Plant response rating, Flood, Sedge, Umbrella ([1]; 1000 g ai/ha): 0; Plant response rating, Flood, Barnyardgrass ([2]; 250 g ai/ha): 0; Plant response rating, Flood, Barnyardgrass ([2]; 1000 g ai/ha): 0; Plant response rating, Flood, Ducksalad ([6]; 250 g ai/ha): 20; Plant response rating, Flood, Ducksalad ([6]; 1000 g ai/ha): 25; Plant response rating, Pigweed ([13]; 125 g ai/ha): 0; Plant response rating, Pigweed ([13]; 500 g ai/ha): 0; Plant response rating, Blackgrass ([14]; 125 g ai/ha): 0; Plant response rating, Blackgrass ([14]; 500 g ai/ha): 0; Plant response rating, Flood, Rice (rice (Oryza sativa); 250 g ai/ha): 0; Plant response rating, Flood, Rice (rice (Oryza sativa); 1000 g ai/ha): 0; Plant response rating, Foxtail, Giant ([15]; 125 g ai/ha): 40; Plant response rating, Foxtail, Giant ([15]; 500 g ai/ha): 50; Plant response rating, Foxtail, Giant ([16]; 125 g ai/ha): 30; Plant response rating, Foxtail, Giant ([16]; 500 g ai/ha): 70; Plant response rating, Galium ([17]; 125 g ai/ha): 0; Plant response rating, Galium ([17]; 500 g ai/ha): 0; Plant response rating, Ryegrass, Italian ([18]; 125 g ai/ha): 0; Plant response rating, Ryegrass, Italian ([18]; 500 g ai/ha): 0
3 | O=C(Nc1cccc(F)c1F)C1C(=O)OCC1c1ccc(F)c(C(F)(F)F)c1 (racemic) [Compound 15] | 40 | 70 | 0 | 0 | 0 | 40 | 0 | 0 | 0 | 0 | 0 | 20 | 0 | 0 | 30 | 70 | 0 | 0 | 0 | 20 | Plant response rating, Flood, Sedge, Umbrella ([1]; 500 g ai/ha): 0; Plant response rating, Flood, Barnyardgrass ([2]; 500 g ai/ha): 0; Plant response rating, Flood, Ducksalad ([6]; 500 g ai/ha): 0; Plant response rating, Pigweed ([13]; 125 g ai/ha): 0; Plant response rating, Pigweed ([13]; 500 g ai/ha): 0; Plant response rating, Blackgrass ([14]; 125 g ai/ha): 0; Plant response rating, Blackgrass ([14]; 500 g ai/ha): 20; Plant response rating, Flood, Rice (rice (Oryza sativa); 500 g ai/ha): 0; Plant response rating, Foxtail, Giant ([15]; 125 g ai/ha): 70; Plant response rating, Foxtail, Giant ([15]; 500 g ai/ha): 90; Plant response rating, Foxtail, Giant ([16]; 125 g ai/ha): 30; Plant response rating, Foxtail, Giant ([16]; 500 g ai/ha): 70; Plant response rating, Galium ([17]; 125 g ai/ha): 0; Plant response rating, Galium ([17]; 500 g ai/ha): 20; Plant response rating, Ryegrass, Italian ([18]; 125 g ai/ha): 0; Plant response rating, Ryegrass, Italian ([18]; 500 g ai/ha): 20
